Key:
in vivo = experiment: in vivo; parameters: species or system white mice; conditions: mouse; for survival at 96 h: ip
Protocol: ^(a) Mortality determined at 96 hours, all drugs given
intraperitoneally dissolved in saline at 42° C.
receiving same mg dose or saline controls and all acetaminophen groups p
<0.005 using chi square test.

liver [1] = experiment: Gross appearance of livers of mice that died after injection; conditions: white mice
Protocol: Doses of 400, 600 and 900 milligrams per kilogram of 3-hydroxyacetanilide, of acetaminophen and of normal saline control were administered to white mice.

liver glutathione = experiment: Effect on liver glutathione levels in mice; assay type: in vivo, mouse; conditions: 600 mg/kg i.p.; for Depletion of mouse liver glutathione: two hours; for Liver glutathione level: two hours after injection, saline 8.2 ± 0.9
Protocol: A number of mice were given doses of acetaminophen and 3-hydroxyacetanilideat levels of 600 mg/kg of body weight and a number of mice were given normal saline as a control. […] All values were determined at two hours after intraperitoneal drug injection.

[2] = test system: plasma glutamate-pyruvate transaminase (GPT); experiment: Plasma glutamate-pyruvate transaminase (GPT) activity in mice; assay type: in vivo; conditions: for Effect on transaminase activity: 600 mg/kg acetaminophen, 900 mg/kg 3-hydroxyacetanilide; for Transaminase activity in plasma, Mean ± SD: saline 32 ± 18
Protocol: (§1) The relative effects of 3-hydroxyacetanilide and acetaminophen were compared on plasma glutamate-pyruvate transaminase (GPT) activity. 600 mg/kg of acetaminophen were used in the test; whereas, a larger quantity, 900 mg/kg, of 3-hydroxyacetanilide was used. […] Activity was measured spectrophotometrically at room temperature using a Sigma® Enzyme Kit. The activity is expressed in micromoles per minute per […] of plasma. The blood for the test was collected in a small amount of heparin. Assays were performed within two hours after obtaining the blood. […] There appears to be a correlation between drug dose, amounts of necrosis seen histologically and elevation of transaminase levels.

liver [3] = experiment: Hepatic necrosis; assay type: in vivo, mice; conditions: compared with acetaminophen
Protocol: as §1

[4] = Mouse writhing test with 1% acetic acid; assay type: in vivo; conditions: for Writhes per 5 Minute (SD): 30 minutes prior to test, control 23.2 ± 5.3
Protocol: To test the effectiveness of 3-hydroxyacetanilide as an analgesic when compared to acetaminophen, a mouse writhing test was used wherein 1% acetic acid is given intraperitoneally 5 minutes prior to counting abdominal writhes made by the animal. The dose of the 1% […] is 0.01 cc/gm of body weight. Prior to counting the writhes, acetaminophen and 3-hydroxyacetanilide were given subcutaneously 30 minutes prior to the test. The control was given normal saline. […] This example therefore illustrates that 3-hydroxyacetanilide is unexpectedly as good an analgesic in this test as acetaminophen and should therefore be used in dosages similar to the dosages known to be effective for actaminophen and since it has almost the same analgesic effect in mice as acetaminophen, it would be expected to have the same analgesic effect as acetaminophen in other mammals.

[5] = British Pat. No. 1,006,558; cited from earlier work
[6] = Roberts and Jollow; cited from earlier work
[7] = test system: plasma glutamate-pyruvate transaminase (GPT); conditions: mice, acetaminophen-induced hepatic injury; cited from earlier work
liver [8] = conditions: acetaminophen-induced hepatic injury, mice; cited from earlier work

SMILES | Mortality compared with a comparable dose of acetaminophen (in vivo) | survival at 96 h (in vivo; 400 mg/kg) | survival at 96 h (in vivo; 600 mg/kg) | survival at 96 h (in vivo; 900 mg/kg) | Gross appearance of liver in mice which died (liver [1]) | Depletion of mouse liver glutathione (liver glutathione) | Liver glutathione level (liver glutathione) | Effect on transaminase activity [2] | Transaminase activity in plasma, Mean ± SD ([2]; 900 mg/kg, n 17) | Elevation in plasma GPT activity ([2]; 900 mg/kg, up to 48 hours after treatment) | Hepatic necrosis (liver [3]) | Writhes per 5 Minute (SD) ([4]; 200 mg/kg s.c.) | Writhes per 5 Minute (SD) ([4]; 400 mg/kg s.c.) | Analgesic effect compared with acetaminophen ([4]; s.c., 200 and 400 mg/kg) | Reduction of the number of writhes per 5 minutes ([4]; s.c., 200 and 400 mg/kg) | Anti-pyretic activity [5] | Hepatotoxicity relative to acetaminophen [6] | Transaminase activity in plasma, Mean ± SD ([2]; 600 mg/kg, n 9) | Time of maximum plasma transaminase levels after dose [7] | Hepatic injury, histology (liver [8])
CC(=O)Nc1cccc(O)c1 [3-hydroxyacetanilide] | considerably less mortality | 96% | 96% | 91% | no significant gross abnormality of the liver | much less depletion | 6.2 ± 1.2 mg/gram liver | much less effect | 23 ± 5 IU/ml Plasma | No significant elevation | did not cause a similar level of hepatic necrosis | 11.6 ± 8.1 | 1.3 ± 1.4 | statistically insignificant differences | effectively reduced the number of writhes per 5 minutes | has anti-pyretic activity | substantially less hepatotoxic than acetaminophen |  |  | 
CC(=O)Nc1ccc(O)cc1 [Acetaminophen, 4-hydroxyacetanilide, reference compound] |  | 40% | 20% | 20% | large and grossly congested in appearance | rapid depletion | 2.4 ± 0.6 mg/gram liver | drastically affects the transaminase activity |  |  |  | 10.0 ± 6.2 | 3.5 ± 4.0 |  | effectively reduced the number of writhes per 5 minutes |  |  | 1834 ± 771 IU/ml Plasma | approximately 6 hours | centrilobular necrosis
